ChEMBL document CHEMBL1201862, “PubChem BioAssay data set” (2004)
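The compound was tested at five concentrations on cells cultured in 96-well plates, with a 48-hour exposure period. Abbreviation: GI50, concentration required for 50% inhibition of growth.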 The source made the active and inactive calls. Cut-off read from the data, not from the text of the source: active = GI50 up to about 1.1 µM and inactive = higher.

Columns and labels:
Test in all cases: growth of human tumour cells (NCI), 48 h
[1] = system: 786-0
[2] = system: ACHN
[3] = system: HL-60
[4] = system: HOP-92
[5] = system: K562
[6] = system: KM12
[7] = system: M14
[8] = system: NCI-H23
[9] = system: OVCAR-4
[10] = system: OVCAR-8
[11] = system: RPMI-8226
[12] = system: SF-268
[13] = system: SF-539
[14] = system: SK-MEL-28
[15] = system: SK-MEL-5
[16] = system: UACC-257
[17] = system: NCI-H226

Measured: GI50

O=c1cc(/C=C/c2ccccc2)c2ccc(O/C(=C\c3ccccc3)c3nc4ccccc4c(=O)o3)cc2o1
inactive: [1] 44.3 µM | [2] 18.5 µM | [3] 12.7 µM | [4] 15.7 µM | [5] 10.8 µM | [6] 15.7 µM | [7] 18.1 µM | [8] 10.6 µM | [9] 27.2 µM | [10] 28.2 µM | [11] 4.76 µM | [12] 11.8 µM | [13] 23.3 µM | [14] 13.8 µM | [15] 16.3 µM | [16] 28.9 µM

CN1C(=O)CC2(C)c3cc(C=O)ccc3N(C)C12 (stereo not given)
inactive: [1] > 100 µM | [2] > 100 µM | [4] > 100 µM | [5] > 100 µM | [6] > 100 µM | [7] > 100 µM | [17] > 100 µM | [8] > 100 µM | [9] > 100 µM | [10] > 100 µM | [12] > 100 µM | [13] > 100 µM | [14] > 100 µM | [15] > 100 µM | [16] > 100 µM

COC(=O)C1CCC(N2C(=O)CCC2C(=O)OC)=N1 (stereo not given)
inactive: [1] > 100 µM | [2] > 100 µM | [3] > 100 µM | [4] > 100 µM | [5] > 100 µM | [6] > 100 µM | [7] > 100 µM | [17] > 100 µM | [8] > 100 µM | [9] > 100 µM | [10] > 100 µM | [11] > 100 µM | [12] > 100 µM | [14] > 100 µM | [16] > 100 µM

CCOC(=O)NC(=O)c1cn(CCCCCOC(=O)NCCCCCCNC(=O)OCCCCCn2cc(C(=O)NC(=O)OCC)c(=O)[nH]c2=O)c(=O)[nH]c1=O
inactive: [1] > 100 µM | [2] > 100 µM | [3] > 100 µM | [5] > 100 µM | [6] > 100 µM | [7] 31 µM | [17] > 100 µM | [9] > 100 µM | [10] > 100 µM | [11] > 100 µM | [12] > 100 µM | [13] > 100 µM | [14] > 100 µM | [15] > 100 µM | [16] > 100 µM

CC(=O)OCC1OC(n2c(-c3ccc(C)cc3)cc(-c3ccccc3)c(C#N)c2=O)C(OC(C)=O)C(OC(C)=O)C1OC(C)=O (stereo not given)
inactive: [1] > 100 µM | [2] > 100 µM | [3] 48.9 µM | [4] > 100 µM | [5] > 100 µM | [6] > 100 µM | [7] > 100 µM | [17] > 100 µM | [8] 60.7 µM | [9] > 100 µM | [10] > 100 µM | [11] 67.1 µM | [12] > 100 µM | [13] > 100 µM | [14] > 100 µM | [15] > 100 µM | [16] > 100 µM

O=C1c2ccccc2C(=O)C2C1C1C(=O)c3ccccc3C(=O)C21 (stereo not given)
inactive: [1] > 100 µM | [2] > 100 µM | [3] 58.9 µM | [4] > 100 µM | [5] > 100 µM | [6] 49.7 µM | [7] > 100 µM | [8] 99.1 µM | [9] > 100 µM | [10] > 100 µM | [12] 78.2 µM | [13] > 100 µM | [14] > 100 µM | [15] 32.6 µM | [16] > 100 µM

CN1Nc2ccccc2CC1=O
inactive: [1] > 100 µM | [2] > 100 µM | [4] > 100 µM | [5] > 100 µM | [6] > 100 µM | [7] > 100 µM | [17] > 100 µM | [8] > 100 µM | [9] > 100 µM | [10] > 100 µM | [11] > 100 µM | [12] > 100 µM | [13] > 100 µM | [14] > 100 µM | [15] > 100 µM | [16] > 100 µM

Cc1cc2c(c(C(N)=O)c1C)-c1cccc(F)c1C2=O
inactive: [1] > 100 µM | [2] > 100 µM | [4] > 100 µM | [5] > 100 µM | [6] > 100 µM | [7] > 100 µM | [8] > 100 µM | [9] > 100 µM | [10] > 100 µM | [11] > 100 µM | [12] > 100 µM | [13] > 100 µM | [14] > 100 µM | [15] > 100 µM | [16] > 100 µM

Brc1ccc2c(c1)C1C(CO2)C(c2ccccc2)=NN1c1ccccc1 (stereo not given)
inactive: [1] > 100 µM | [2] > 100 µM | [3] 90.8 µM | [4] 57.3 µM | [5] 78.9 µM | [6] > 100 µM | [8] > 100 µM | [10] > 100 µM | [11] 77.6 µM | [12] > 100 µM | [14] > 100 µM | [16] > 100 µM

Cc1nc2nn(Cc3ccccc3)cc2c(=O)o1
inactive: [1] > 100 µM | [2] > 100 µM | [3] > 100 µM | [5] > 100 µM | [6] > 100 µM | [17] > 100 µM | [10] > 100 µM | [11] > 100 µM | [12] > 100 µM | [13] > 100 µM | [15] > 100 µM | [16] > 100 µM

CC1c2c(Cl)nc3ccccc3c2Oc2c1c(Cl)nc1ccccc21
inactive: [1] 49.1 µM | [2] 51.5 µM | [3] 29.6 µM | [4] 46.5 µM | [5] 46.8 µM | [6] > 100 µM | [8] > 100 µM | [10] 85.7 µM | [11] 32.8 µM | [12] > 100 µM | [13] > 100 µM | [14] > 100 µM | [15] 30.3 µM | [16] > 100 µM

COC1OCC(O)C(NC(=O)N(C)N=O)C1O (stereo not given)
inactive: [4] > 100 µM | [5] > 100 µM | [6] > 100 µM | [17] > 100 µM | [8] > 100 µM | [9] > 100 µM | [10] > 100 µM | [11] > 100 µM | [12] > 100 µM | [13] > 100 µM | [14] > 100 µM | [15] > 100 µM | [16] > 100 µM

O=c1[nH]c2c(O)cccc2c2cc3c(c(O)c12)OCO3 [NARCIPRIMINE]
inactive: [1] 25.5 µM | [2] 15.8 µM | [3] 6.44 µM | [4] 13.4 µM | [5] 17.5 µM | [6] 16.7 µM | [7] 20.4 µM | [17] 17.4 µM | [9] 11.9 µM | [10] 23.6 µM | [11] 25 µM | [12] 23.2 µM | [13] 18 µM | [15] 17.1 µM | [16] 19.7 µM
